Source: patent US20060204502A1 (priority 2004, published 2006)
Where two headings read alike, the source gives them in different places.

Experiments:
[1] = test system: HIF-1α mRNA; experiment: Real-Time RT-PCR of HIF-1α mRNA, A375 cells in hypoxia; type: cell-based, human; settings: 4 hours hypoxia
[2] = test system: p44/p42 MAPK; experiment: p44/p42 MAPK phosphorylation immunoblot, A375 cells in hypoxia; type: cell-based, human; settings: 4 hours hypoxia, nanomolar concentrations, maximum at 100 nM
Procedure: (§1) Cells were harvested and washed with ice-cold PBS containing 1 mM sodium orthovanadate, AEBSF 104 mM, aprotinin 0.08 mM, leupeptin 2 mM, bestatin 4 mM, pepstatin A 1.5 mM, E-64 1.4 mM. Cells were then lysed in Triton lysis buffer. The protein concentration was determined using BCA protein assay kit (Pierce). Equivalent amounts of protein (35 ug) were subjected to electrophoresis on 7.5% sodium dodecyl sulfate-acrylamide gel. The gel was then electroblotted onto a nitrocellulose membrane. Membranes were blocked with 5% nonfat dry milk in PBS containing 0.1% Tween-20 and incubated with antibodies against HIF-1α (1:250 dilution) and HIF-1β (1:1000 dilution) in 5% nonfat dry milk in PBS/0.1% Tween-20 overnight at 4° C. Aliquots of total protein sample (50 ug) were analyzed using antibodies specific for phosphorylated (Thr183/Tyr185) or total p44/p42 MAPK (1:5000 dilution), phosphorylated (Thr180/Tyr182) or total p38 MAPK (1:1000 dilution) and for A3 receptor (1 µg/ml dilution). Filters were washed and incubated for 1 hour at room temperature with peroxidase-conjugated secondary antibodies against mouse and rabbit IgG (1:2000 dilution). […] The membranes were then stripped and reprobed with tubulin (1:250) to ensure equal protein loading. […]

[3] = test system: A375 cells; experiment: Colony formation assay of A375 cells; type: cell-based, human
Procedure: FIG. 2 illustrates colony formation assay of A375 cells. Cells were treated with different drugs and colonies were counted after 7 days. The values represent the mean±SEM of four independent experiments. […] Analysis was by ANOVA followed by Dunnett's test.
Control plates received the same volume of DMSO alone. After 7 days of growth at 37° C. in humidified atmosphere containing 5% CO2, the cells were fixed with absolute methanol for 5′ and stained with 1/10 Giemsa/phosphate-buffered saline (PBS) staining solution for 10 minutes. Staining solution was removed and colonies of greater than 30 cells were scored as survivors. For each treatment, six individual wells were scored.

[4] = test system: HIF-1α; experiment: HIF-1α protein immunoblot in hypoxic cells; type: cell-based, human; settings: for HIF-1α protein expression: 100 nM, 4 hours hypoxia
Procedure: Cell culture and hypoxia treatment: Cells were maintained in DMEM (A375), EMEM (NCTC 2544) or RPMI 1640 (U87MG, U2OS) medium containing 10% fetal calf serum, penicillin (100 U/ml), streptomycin (100 ug/ml), and L-glutamine (2 mM) at 37° C. in 5% CO2/95% air. Cells were passaged two or three times weekly at a ratio between 1:5 and 1:10. Hypoxic exposure was in BBL™ GasPak pouch™ System (Becton Dickinson) that reduce oxygen concentration of less than 2% within 2 hours of incubation at 35° C.
Cells were harvested and washed with ice-cold PBS containing 1 mM sodium orthovanadate, AEBSF 104 mM, aprotinin 0.08 mM, leupeptin 2 mM, bestatin 4 mM, pepstatin A 1.5 mM, E-64 1.4 mM. Cells were then lysed in Triton lysis buffer. The protein concentration was determined using BCA protein assay kit (Pierce). […] The gel was then electroblotted onto a nitrocellulose membrane. Membranes were blocked with 5% nonfat dry milk in PBS containing 0.1% Tween-20 and incubated with antibodies against HIF-1α (1:250 dilution) and HIF-1β (1:1000 dilution) in 5% nonfat dry milk in PBS/0.1% Tween-20 overnight at 4° C. Aliquots of total protein sample (50 ug) were analyzed using antibodies specific for phosphorylated (Thr183/Tyr185) or total p44/p42 MAPK (1:5000 dilution), phosphorylated (Thr180/Tyr182) or total p38 MAPK (1:1000 dilution) and for A3 receptor (1 µg/ml dilution). Filters were washed and incubated for 1 hour at room temperature with peroxidase-conjugated secondary antibodies against mouse and rabbit IgG (1:2000 dilution). […] The membranes were then stripped and reprobed with tubulin (1:250) to ensure equal protein loading.
U0126 was used at 10 and 30 uM as inhibitor of MEK-1 and MEK-2 to prevent p44 and p42 MAPK activation. SB202190 was used at 1 and 10 uM as inhibitor of p38 MAPK.
Densitometry analysis: The intensity of each band in immunoblot assay was quantified using molecular analyst/PC densitometry software (Bio-Rad). […] The data were presented as the mean±S.E., and analyzed by the Student's test.

[5] = test system: p38 MAPK; experiment: p38 MAPK phosphorylation immunoblot, A375 cells in hypoxia; type: cell-based, human; settings: 4 hours hypoxia, 10-1000 nM
Procedure: as §1

[6] = target: P-gp (Homo sapiens, UniProt P08183); type: cell-based; settings: HeL023 cells; 10 μM
Procedure: Rhodamine 123 Efflux Assay: 5×10^5 cells from each subline were loaded with 50 ng/ml of rhodamine 123 for 30 minutes at 37 C in medium. The cells were washed and resuspended in dye-staining agent free medium for 3 hours at 37 C. to allow rhodamine 123 efflux. The cells were then washed twice and the fluorescence of intracellular rhodamine 123 were analysed with Flow cytometer (residual fluorescence FRES). The fluorescence was compared with loaded cells maintained at 4 C. to prevent drug export (maximal fluorescence FMAX). […] Cells from each subline that were not being exposed to rhodamine 123 were used as negative controls.
Rhodamine 123 (Rh123) retention, a P-gp functional assay, was studied in all cell lines. This assay was performed by incubating cells with Rh123 and determining Rh123 accumulation by measuring its fluorescence. The maximum load of Rh123 (FMAX) was quantified at the end of treatment harvesting the cells and storing them at 4° C. to prevent any active Rh123 efflux. The P-gp drug efflux was allowed incubating Rh123-loaded cells in fresh new medium Rh123-free for 3 hours at 37° C. After this incubation, residual fluorescence (FRES) was measured and compared to FMAX.

[7] = target: T1, human A3 adenosine receptor (Homo sapiens, UniProt P0DMS8); experiment: Binding affinity to A3 adenosine receptor in A375 cells
T1 construct: endogenous in cells; host or cells: A375 human melanoma cells (ATCC)
T1 sequence (P0DMS8 1-318): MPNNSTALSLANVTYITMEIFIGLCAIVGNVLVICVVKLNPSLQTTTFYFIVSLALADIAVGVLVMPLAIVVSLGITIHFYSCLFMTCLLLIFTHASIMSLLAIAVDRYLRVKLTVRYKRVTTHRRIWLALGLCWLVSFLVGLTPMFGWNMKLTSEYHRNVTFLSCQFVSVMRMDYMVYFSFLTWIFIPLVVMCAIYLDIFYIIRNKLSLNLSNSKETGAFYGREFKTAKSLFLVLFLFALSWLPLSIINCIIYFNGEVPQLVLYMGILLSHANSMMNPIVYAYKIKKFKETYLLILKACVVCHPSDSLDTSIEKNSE

[8] = test system: A375 cells; experiment: Flow cytometry cell cycle (G2/M) and apoptosis (sub-G1) analysis, A375; type: cell-based, human; settings: A375; for EC50: Homo sapiens, A-375
Procedure: Flow Cytometry Analysis: A375 and NCTC2544 adherent cells were trypsinized, mixed with floating cells, washed with PBS and permeabilised in 70% (vol/vol) ethanol/PBS solution at 4° C. for at least 24 hours. Jurkat, HeL023 and PBMC cells were centrifuged for 10 minutes at 1000×g. The cell pellet was then resuspended and permeabllised in 70% (vol/vol) ethanol/PBS solution at 4° C. for at least 24 hours. The cells were washed with PBS and the DNA was stained with a PBS solution, containing 20 μg/ml of propidium iodide and 100 μg/ml of RNAse, at room temperature for 30 minutes. Cells were analysed by FACScan (Becton-Dickinson) and the content of DNA was evaluated by the Cell-LISYS program (Becton-Dickinson). Cell distribution among cell cycle phases and apoptotic cells was evaluated as previously described (Secchiero et al., 2001). Briefly, the cell cycle distribution is shown as the percentage of cells containing 2n (G1 phase), 4n (G2 and M phases), 4n>x>2n. DNA amount (S phase) judged by propidium iodide staining. The apoptotic population is the percentage of cells with DNA content lower than 2n.
After 24 hours, cells were collected for flow cytometry analysis. PD 98059 was used at 20 uM as an inhibitor of MEK to prevent MEK-1 activation. […]
EC50 values were obtained by analysing G2/M accumulation dose response curve. ECMAX values were obtained by analysing sub-G1 accumulation dose response curve. Paclitaxel values have units of ng/ml.

[9] = test system: Human Melanoma A375; experiment: MTT growth inhibitory assay, A375; settings: Homo sapiens, A-375, read-out: IC50 (μg/ml) of anti-neoplastic agent used jointly with A3 antagonist, A375 cells
[10] = test system: PBMC blasts; experiment: Flow cytometry cell cycle analysis, PBMC blasts; type: cell-based; settings: Homo sapiens, + MRE3008F20 10 μM, read-out: EC50 (G2/M accumulation)
Procedure: For multi-drug resistance testing, A375 and NCTC2544 cells are grown adherently and maintained in DMEM and EMEM medium, respectively, containing 10% fetal calf serum, penicillin (100 U/ml), streptomycin (100 μg/ml), L-glutamine (2 mM) at 37° C. in 5% CO2/95% air. HeL023 and Jurkat were grown in RPMI-1640 medium, containing 10% fetal calf serum, penicillin (100 U/ml), streptomycin (100 μg/ml), L-glutamine (2 mM) at 37° C. in 5% CO2/95% air. Cells are passaged two or three times weekly at a ratio between 1:5 and 1:10. Lymphocytes were isolated from buffy coats kindly provided by the Blood Bank of the University Hospital of Ferrara. Blood donated by healthy volunteers, after informed consent for research was obtained. Lymphocytes were isolated by density gradient centrifugation (Ficoll/Histopaque 1.077 g/ml). […]
Flow Cytometry Analysis: A375 and NCTC2544 adherent cells were trypsinized, mixed with floating cells, washed with PBS and permeabilised in 70% (vol/vol) ethanol/PBS solution at 4° C. for at least 24 hours. […] Cells were analysed by FACScan (Becton-Dickinson) and the content of DNA was evaluated by the Cell-LISYS program (Becton-Dickinson). Cell distribution among cell cycle phases and apoptotic cells was evaluated as previously described (Secchiero et al., 2001). […]

Chain of P-gp (P08183 whole entry): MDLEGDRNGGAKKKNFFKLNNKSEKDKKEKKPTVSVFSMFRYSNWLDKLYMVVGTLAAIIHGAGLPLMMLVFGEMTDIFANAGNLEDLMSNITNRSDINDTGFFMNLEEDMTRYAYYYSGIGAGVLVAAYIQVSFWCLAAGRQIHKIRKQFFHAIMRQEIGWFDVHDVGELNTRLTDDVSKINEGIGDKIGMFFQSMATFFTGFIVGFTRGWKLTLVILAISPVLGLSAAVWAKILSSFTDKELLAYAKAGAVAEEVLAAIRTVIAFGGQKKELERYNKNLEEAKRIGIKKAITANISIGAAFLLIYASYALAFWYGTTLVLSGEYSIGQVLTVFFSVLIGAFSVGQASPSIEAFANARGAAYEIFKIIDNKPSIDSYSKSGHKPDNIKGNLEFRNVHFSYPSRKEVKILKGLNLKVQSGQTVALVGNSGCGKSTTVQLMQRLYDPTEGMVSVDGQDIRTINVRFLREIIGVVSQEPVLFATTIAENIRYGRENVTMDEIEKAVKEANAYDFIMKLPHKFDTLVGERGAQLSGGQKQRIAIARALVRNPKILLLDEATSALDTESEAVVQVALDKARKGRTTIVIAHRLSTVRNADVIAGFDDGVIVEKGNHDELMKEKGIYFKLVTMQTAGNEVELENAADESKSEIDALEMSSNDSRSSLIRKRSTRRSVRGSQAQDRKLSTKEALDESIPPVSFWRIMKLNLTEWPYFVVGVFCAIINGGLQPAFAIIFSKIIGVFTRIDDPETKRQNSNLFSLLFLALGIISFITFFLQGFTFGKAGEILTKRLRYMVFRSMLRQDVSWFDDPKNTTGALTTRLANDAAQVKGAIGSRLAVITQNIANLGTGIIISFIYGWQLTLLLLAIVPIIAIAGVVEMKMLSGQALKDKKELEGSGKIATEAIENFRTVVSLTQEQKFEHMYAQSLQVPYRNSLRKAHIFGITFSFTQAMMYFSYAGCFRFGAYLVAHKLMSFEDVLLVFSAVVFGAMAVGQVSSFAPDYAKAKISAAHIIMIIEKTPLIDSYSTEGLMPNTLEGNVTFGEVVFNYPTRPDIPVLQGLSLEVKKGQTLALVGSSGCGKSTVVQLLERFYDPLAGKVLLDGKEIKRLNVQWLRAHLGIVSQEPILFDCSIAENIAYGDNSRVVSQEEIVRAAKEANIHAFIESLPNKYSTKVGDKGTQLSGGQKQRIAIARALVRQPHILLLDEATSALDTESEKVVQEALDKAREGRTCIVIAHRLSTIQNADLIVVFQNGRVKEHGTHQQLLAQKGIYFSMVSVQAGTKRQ

With CNC(=O)[C@H]1O[C@@H](n2cnc3c(NCc4cccc(I)c4)nc(Cl)nc32)[C@H](O)[C@@H]1O [Cl-IB-MECA] the “fold increase of HIF-1α mRNA accumulation vs untreated cells” value (“fold increase” for short) ([1]; 10 nM) was 1.13±0.10 fold, the “fold increase” value ([1]; 100 nM) was 1.25±0.15 fold and the “fold increase” value ([1]; 1 μM) was 1.19±0.13 fold. The “phosphorylation of p44 and p42” value [2] was “induced”, the “colony formation, % of DMSO control” value ([3]; 10 μM alone, colonies counted after 7 days) was 130% and the “colony formation, % of DMSO control” value ([3]; 10 μM combined with paclitaxel (0.75 μg/ml), 7 days) was 85%. For the same compound, the EC50 ([4]; A375, hypoxia 4 hours, read-out: EC50, HIF-1α protein accumulation) was 10.6 ± 1.2 nM, the HIF-1α protein expression ([4]; U2OS osteosarcoma) was “significant increase” and the HIF-1α protein expression ([4]; U87MG glioblastoma) was “significant increase”. For the same compound, the HIF-1α protein expression ([4]; human keratinocytes NCTC 2544) was “significant increase” and the “phosphorylation of p38 MAPK” value [5] was “increased the phosphorylation of p38 MAPK in a dose-dependent manner”.
In the case of CCCCn1cc2c(nc(NC(=O)Nc3ccccc3)n3nc(-c4ccco4)nc23)n1 [MRE 3062F20, 5-N-(4-phenyl-carbumoyl)amino-8-butyl-2(2furyl)-pyrazolo-[4,3e]-1,2,4-triazolo[1,5-c]pyrimidine], the “% of Rh123 Negative Cells (cells expressing P-gp activity)” value [6] is reported as 1.0 ± 0.2%, the Ki [7] is reported as 2.3 ± 0.2 nM and the EC50 ([8]; antagonist dose inducing 50% of the enhancing activity to vindesine (1 nM), G2/M accumulation, read-out: SEC50) is reported as 430 ± 40 nM.
In the case of CC(=O)O[C@H]1C(=O)[C@@]2(C)[C@H]([C@H](OC(=O)c3ccccc3)[C@]3(O)C[C@H](OC(=O)[C@H](O)[C@@H](NC(=O)c4ccccc4)c4ccccc4)C(C)=C1C3(C)C)[C@]1(OC(C)=O)CO[C@@H]1C[C@@H]2O [paclitaxel], the IC50 ([9]; + IL-11 (5 μg/ml)) is reported as 0.00046 µg/mL, the IC50 ([9]; + MRE3008F20 (10 μg/ml)) is reported as 0.00059 µg/mL and the EC50 [10] is reported as 5.3 ± 0.6 ng/mL. For the same compound, the “colony formation, % of DMSO control” value ([3]; paclitaxel (0.75 μg/ml) alone, 7 days) was 64%, the “ECMAX (concentration exerting maximal apoptosis, sub-G1)” value ([8]; DMSO (no antagonist)) was 6.00 ± 0.63 ng/mL and the EC50 ([8]; 24 h, DMSO (no antagonist), read-out: EC50 (G2/M accumulation)) was 16.6 ± 2 ng/mL.
